Reference: patent publication US10028941B2, “Composition for the management of nausea and vomiting” (DUCHESNAY INC., priority 2013, dated 2018)
“Also recorded” adds a separate entry of the source. Blank lines part the entries; values can stand above or below the molecule they belong to.

Legend:
[1] = tested on: nausea and vomiting of pregnancy symptoms; assay: Randomized controlled efficacy trial of Diclectin vs placebo in pregnant women: plasma levels vs PUQE score; format: in vivo, human; conditions: pregnant women treated with Diclectin for 14 days; FIG. 1
Experimental: A randomized controlled efficacy trial of Diclectin® vs. placebo in pregnant women was carried out as follows, with the results shown in FIG. 1.
To assess the plasma levels of Doxylamine and PLP and the severity of nausea and vomiting of pregnancy symptoms in pregnant women treated with Diclectin®.
The demographic and medical characteristics of the subjects are as described in Koren et al., Am J Obstet Gynecol 2010; 203(6):571.e1-7.
The study design is as described in Koren et al., 2010, supra. Briefly, a randomized, double-blind, multicenter placebo controlled trial studying pregnant women suffering from nausea and vomiting of pregnancy, analyzed by intention to treat. Women received Diclectin (n=131) or placebo (n=125) for 14 days. Nausea and vomiting of pregnancy symptoms were evaluated daily using the pregnancy unique quantification of emesis scale (PUQE-24, Ebrahimi et al., J Obstet Gynaecol Can. 2009 September; 31(9):803-7).

[2] = Randomized controlled bioavailability study, three-way cross over, plasma PLP after treatments A, B, C; conditions: for speed of increase / time of appearance of PLP in the plasma: given together with Doxylamine and Pyridoxine, R5P 40 mg, AUC 0-2 h
Experimental: The results depicted in FIGS. 2 and 3 were obtained from randomized controlled bioavailability studies in healthy women, which were carried out as follows.
To characterize the pharmacokinetic profile of Pyridoxal-5′-Phosphate (PLP) and to determine whether Riboflavin-5-phosphate (R5P), PLP or PYL in an immediate release formulation can be used to positively alter the kinetics of PLP compared to the current Diclectin® formulation (the current Diclectin® formulation is a delayed release formulation containing 10 mg Doxylamine succinate and 10 mg Pyridoxine-HCl).
Healthy female (n=12) participants between 18 and 45 years of age with a body mass index between 19 and 30 kg/m^2 were administered the treatments described below under empty stomach (fasted) conditions. Blood sampling was conducted extensively from 1 hour pre-administration until 24 hours post-administration. After a wash-out period of 21 days, dose administration and blood sampling was re-conducted as stated above. Doxylamine, Pyridoxine and Pyridoxine metabolites were measured using liquid chromatography-tandem mass spectrometry, as previously described (Nulman and Koren, Can J Clin Pharmacol Vol 16(3):e400-e406, 2009).
Three Way Cross Over Design.
Diclectin®: delayed release formulation containing 10 mg Doxylamine succinate and 10 mg Pyridoxine-HCl (PA-DR).
Immediate release: an oral solution of 20 mg Doxylamine succinate and 20 mg Pyridoxine-HCl (PA-IR).
Treatment group A: One (1) Diclectin® Tablet (current delayed release formulation of 10 mg Doxylamine and 10 mg Pyridoxine-HCl) plus an oral solution of 10 mg Doxylamine and 10 mg Pyridoxal HCl (immediate release) (PYL);
Treatment group B: One (1) Diclectin® Tablet (current delayed release formulation of 10 mg Doxylamine and 10 mg Pyridoxine-HCl) plus an oral solution of 10 mg Doxylamine and 10 mg Pyridoxal-5′-Phosphate (immediate release) (PLP);
Treatment group C: One (1) Diclectin® Tablet (current delayed release formulation of 10 mg Doxylamine and 10 mg Pyridoxine-HCl) plus an oral solution of 10 mg Doxylamine and 10 mg Pyridoxine HCl and 40 mg Riboflavin-5-phosphate (R5P) (immediate release).
Bioavailability; Tmax, Cmax and AUC0-t between each treatment. Doxylamine, and Pyridoxine and its metabolites were measured using liquid chromatography-tandem mass spectrometry, as previously described (Nulman and Koren, Can J Clin Pharmacol Vol 16 (3):e400-e406, 2009).

[3] = Another study with different doses of R5P (5, 10 or 20 mg), plasma PLP levels vs controls; format: in vivo, human
Experimental: In another study, different doses of R5P were tested: 5, 10 or 20 mg of R5P (i.e. equivalent to the formulations administered to Treatment group C above, with the exception that 5, 10 or 20 mg of R5P was used rather than 40 mg R5P; 8 healthy women for each dose), and the PLP levels were compared to those measured in control healthy women not administered with R5P (24 subjects, equivalent to Treatment group A above).

Compound: CN(C)CCOC(C)(c1ccccc1)c1ccccn1 (stereo not drawn) [Doxylamine, reference compound]
plasma concentration vs severity of NVP (PUQE score) [1]: correlates with a reduction in the severity of NVP

Compound: Cc1ncc(COP(=O)(O)O)c(C=O)c1O [PLP, Pyridoxal 5-phosphate]
plasma concentration vs severity of NVP (PUQE score) [1]: correlates with a reduction in the severity of NVP

speed of increase / time of appearance of PLP in the plasma [2]: did not result in such improvement
Compound: Cc1ncc(CO)c(C=O)c1O [PYL, Pyridoxal]

effect on PLP levels relative to controls ([3]; 5 mg R5P, 8 healthy women, controls without R5P): no significant effect
effect on PLP levels relative to controls ([3]; 10 mg R5P, 8 healthy women, controls without R5P): no significant effect
effect with 20 mg R5P compared with 40 mg R5P ([3]; 20 mg vs 40 mg R5P): lower
inter-subject variations in PLP levels ([2]; administration of R5P): less inter-subject variations
speed of increase / time of appearance of PLP in the plasma ([2]; listed as FMN): faster time of appearance in the plasma
Compound: Cc1cc2nc3c(=O)[nH]c(=O)nc-3n(C[C@H](O)[C@H](O)[C@H](O)COP(=O)(O)O)c2cc1C [R5P, riboflavin-5-phosphate]
effect on pharmacokinetics of PLP relative to controls ([3]; 20 mg R5P, 8 healthy women, controls without R5P): some improvement in the pharmacokinetics of PLP
time to reach steady-state PLP levels ([2]; administration of R5P): decreased time to reach steady-state PLP levels
speed of increase / time of appearance of PLP in the plasma [2]: faster increase in the plasma level of PLP
PLP concentration (AUC) 0-12 h compared with Diclectin (PA-DR) ([2]; healthy women, fasted, one-way ANOVA, FIG. 2): did not increase PLP levels significantly; also recorded: does not significantly affect PLP levels
